Like-named read-outs stand apart in the source and are kept apart here.

The subject of data set [1] is Nrf2. Briefly: Nrf2-dependent luciferase reporter assay in AREc32 cell line. The data set is classed as cell-based. As to conditions: AREc32 cells; for EC50: Arec32, 24 h, read-out: CD (concentration required to double the luciferase reporter activity); for Nrf2 induction (luciferase activity), result in words: 24 h, compound 7 also at 60 and 100 μM. The procedure: Thereafter, we tested the ability of the compounds to induce the Nrf2 transcription factor. We used an Nrf2-dependent luciferase reporter assay in the AREc32 cell line[45]. Cells were cultured for 24 h and then treated with increasing concentrations of compounds 5a–t (0.3, 3, 10 and 30 μM), including the known inducer sulforaphane, containing an isothiocyanate motive as positive control.
AREc32 cells were plated in 96-well white plates (2 × 10^4 cells/well). After 24 h, cells were incubated with increasing concentrations of each compound in duplicate for 24 h. AREc32 cells express constitutively the plasmid pGL-8xARE that implements 8 copies of the EpRE sequences followed by luciferase reporter gen. Therefore, Nrf2 induction is related to the activation of EpRE sequences, expressing luciferase at the same extent as EpRE sequences are activated. The Luciferase Assay System (Promega E1500), was used according to provider protocol and luminescence was quantified in an Orion II microplate luminometer (Berthold, Germany). Fold induction of luciferase activity was normalized to basal conditions. Data are expressed as CD values, expressing the concentration required to double the luciferase activity. CD values are calculated from dose-response curves generated from fold induction of control conditions vs. inducer concentration and fitted by non-linear regression and data interpolated to 2-fold induction concentration.
Breast cancer cells stably transfected to express luciferase after EpRE sequences MCF-7/AREc32 named AREc32, were kindly provided by Dr. C. Roland Wolf (University of Dundee, UK).^14 AREc32 cells were maintained in DMEM with high glucose-glutamax, supplemented with 10 % FBS, 1 % penicillin-streptomycin (10,000 units), and geneticin (0.8 mg/ml G418) at 37 °C and in a 5 % CO2- air atmosphere.^14
AREc32 cells are constitutively transfected with the pGL-8xARE luciferase reporter gene, inserted after EpRE sequences. Thus, Nrf2 translocation to the nucleus induces the activation of the EpRE sequences, expressing their target phase II antioxidant genes, and expressing luciferase at the same extent.^15 AREc32 cells were plated in 96-well white plates (2X10^4 cells/well). After 24 h, cells were incubated with increasing concentrations of each compound in duplicate for 24 h (dissolved in DMSO to give a final 0.1 % vol/vol concentration of vehicle). Each plate included non-treated cells as basal luciferase expression and tBHQ (10 µM) as positive control. TBHQ is a potent Nrf2 inducer used as control in the development of the AREc32 cells.^14 Transfected clones are selected using G418. AREc32 cells express constitutively the plasmid pGL-8xARE that implements 8 copies of the EpRE sequences followed by a luciferase reporter gene. Therefore, the induction of Nrf2 is proportional to the activation of EpRE sequences, expressing luciferase at the same extent as EpRE sequences are activated. Luciferase production is then assessed by a bioluminescence assay. The Luciferase Assay System (Promega E1500), was used according to the Promega protocol and luminescence was quantified in an Orion II microplate luminometer (Berthold, Germany). Relative Light Units (RLU) were recorded for the contents of each well. Fold induction of luciferase activity was calculated by dividing the RLU obtained for the tests wells for each treatment by the average RLU obtained for the basal conditions. Data are expressed as CD values, expressing the concentration required to double the basal luciferase activity, used to quantify the Nrf2 induction potency. CD values are calculated from dose-response curves generated from fold induction of control conditions vs. inducer concentration and fitted by non-linear regression and data interpolated to value the 2-fold induction concentration, using GraphPad Prism software (San Diego, CA, USA).
Background: Reporter assays use an easily measured gene product as a stand-in for the process of interest.

In data set [2] the test system is primary rat glial cells. Briefly: Nitrite production in LPS-stimulated primary glial cultures (Griess). As to conditions: Glial cell, 24 h pre-incubation, 18 h co-incubation with LPS 1 μg/mL, read-out: IC50 nitrite reduction. The data set is classed as cell-based. The text has this: (§1) Therefore, we envisaged the study of compounds 5a–t as potential anti-inflammatory agents. We used primary rat glial cells treated with lipopolysaccharide (LPS) to induce the production of nitrites and ROS as a model of glial activation. Nitrite production is directly proportional to the expression of the iNOS, that is over-expressed when LPS activates glial cells. ROS production is proportional to NOX activation after stimulation with LPS. Results are summarized in Table 2 as IC50s of nitrite production reduction and ROS production reduction. We have included sulforaphane as control in all experiments (see the Supporting Information).
Glial cells were pre-incubated with increasing concentrations of compounds for 24 hours. Then, treatments were removed and cells were incubated with LPS (1 μg/mL) alone or in presence of each compound at the desired concentration. Nitrite production was assessed 18 hours later by modified Griess assay. Briefly, samples (150 μl) were mixed with dapsone (75 μl) and NEDA (75 μl), and the mixture was incubated at room temperature for 5 min. Light absorption was measured at 550 nm in a microplate reader (Labtech, Offenburg, Germany). All data were normalized to basal nitrite production, considering this value as 100% of nitrite production. IC50 values were calculated from dose-response curves represented as percentage of nitrite production reduction induced by the different concentrations of each compound.
(§2) Mixed glial cultures were obtained from cerebral cortex of 2-5 day-old Sprague-Dawley rats. After removal of blood vessels and meninges, the forebrains were dissociated in DMEM/F12 medium. After mechanical dissociation, cells were plated (3x10^5 cells/ml) in DMEM/F12 medium with 20% fetal bovine serum (FBS) and 1 % penicillin/streptomycin (10,000 units), at 37 °C and in a 5 % CO2-supplemented air atmosphere. After 5 days, medium was substituted by DMEM/F12 medium with 10 % FBS. Cells were cultured for 7-10 days before treatment.
Primary rat glial cells were treated with compounds 5a-t at increasing concentrations (3, 10, 30 and 60 µM) during 24 h. Thereafter, treatments were removed and glial cells were co-incubated with increasing concentrations of each compound and LPS (1 µg/mL) for 18 h more. At the end of this period, supernatant was collected and the presence of nitrites was analyzed by the Griess method with modifications.^20 Each plate included non-treated cells as basal nitrite production, sulforaphane (SFN, 10 µM) as positive control. Briefly, samples (150 µl) were mixed with DAPSONE (75 µl) and NEDA (75 µl), and the mixture was incubated at room temperature for 5 min. Light absorption was measured at 550 nm in a microplate reader (Labtech, Offenburg, Germany). All data were normalized to basal nitrite production, considering this value as 100% of nitrite production. EC50 values were calculated from dose-response curves represented as percentage of nitrite production reduction induced by the different concentrations of each compound. Concentration response curves were fitted by non-linear regression analysis of individual concentration-response curves using GraphPad Prism software (San Diego, CA, USA). EC50 values are expressed as mean ± SEM of four different experiments in triplicate.
Background: The Griess reaction detects nitrite, a stable product of nitric oxide.

Data set [3] has as its system primary rat glial cells. Briefly: ROS production in LPS-stimulated primary glial cultures (H2DCFDA). The data set is classed as cell-based. The conditions noted are these: Glial cell, 24 h pre-incubation, 18 h co-incubation with LPS, 3 h with fluorescent dye, read-out: IC50 ROS reduction.
Text: as §1
Besides the increase in nitrite production, it is well known that LPS stimulation of microglia also induces the activation of NOX, which induces superoxide free radical production. In fact, this mechanism is synergistic with the expression of iNOS and the production of nitrites. In this respect, there is a body of evidence showing that NOX activation is a major contributor to ROS oxidative stress and neuronal death in AD[57][58]. […] In general, potency to reduce ROS production increased from ortho to para and meta as observed above.
(§3) Primary glial cells were cultured in bottom transparent 96-well black plates following standard protocol. Cells were pre-incubated with the corresponding compound at the selected concentrations, for 24 hours, and therafter, co-incubated with the corresponding compound and LPS (1 μM) during 18 h more. Then, treatments were removed and cells were loaded with the fluorescent probe 2′,7′-dichlorodihydrofluorescein diacetate (H2DCFDA) (10 μM) for 45 minutes in serum free glial culture medium. All experiments included cells treated with culture medium alone (basal). Cells were washed twice with culture medium and fluorescence intensity was recorded in a Fluostar Optima multiwall pate reader (BMG Labtech, Offenburg, Germany) at 485/520 nm as excitation and emission wavelengths respectively, each hour, during 3 hours period. Data were normalized with respect to basal conditions that were considered as 100%.
as §3, with “µM)” for “μM)”, “2',7'-dichlorodihydrofluorescein” for “2′,7′-dichlorodihydrofluorescein”
as §2

For data set [4], the target named is T1, GSK3β (Homo sapiens, UniProt P49841).
T1 construct: purchased Promega V1991
The data set can be described thus: GSK3β inhibition, luminescence Kinase-Glo assay. The conditions noted are these: for Ki: calculated from IC50 by Cheng-Prusoff equation, Km ATP 2.345 µM, read-out: Ki (apparent equilibrium dissociation constant); for IC50: four concentrations 0.1, 1, 10, 30 μM, ATP 1 μM, 1 h. The data set is classed as biochemical.
Description: GSK3β inhibitory activity was evaluated using the method developed by Baki[66], with modifications. Compounds were dissolved in assay buffer, containing 40 mM Tris (pH 7.5), 20 mM MgCl2, 0.1 mg/ml BSA (bovine serum albumin) and 50 μM dithiothreitol (DTT) at the desired concentrations. Firstly, 10 μl of enzyme (10 ng) and 10 μl of each compound were mixed for 30 min. Then, 20 μl of a mixture of ATP (1 μM) and GSK3β peptidic substrate were added to each well. The mixture was incubated for 60 min at 30 °C. Thereafter, the remaining ATP concentration was measured with the Kinase-Glo system following instructions from the supplier. Luminescence was measured in an Orion II microplate luminometer (Berthold, Germany) as relative light units (RLU). […] IC50 values were calculated by non-linear regression analysis of individual concentration-response curves using GraphPad Prism 5.0 software (San Diego, CA, USA).
The ability of the compounds to inhibit GSK3β was evaluated using the method developed by Baki^9 with some modifications. The tested compounds were dissolved in assay buffer, containing 40 mM Tris (pH 7.5), 20 mM MgCl2, 0.1 mg/ml BSA (bovine serum albumin) and 50 µM dithiothreitol (DTT), to achieve final reaction concentrations of 0.1, 1, 10 and 30 µM. […] The GSK3β inhibition assay was performed in white 96-well plates, in duplicates. Firstly, 10 µl of enzyme (10 ng) were added to each well, followed by 10 µl of the compounds at the desired concentration. After 30 minutes, 20 µl of a mixture of ATP and GSK3β peptidic substrate were added to each well, achieving a final concentration of 1 µM of ATP and 25 of µM peptidic substrate. The mixture was incubated at 30 °C for 60 minutes. Once the reaction was finished, the remaining ATP concentration was measured by adding 40 µl/well of Kinase-Glo reagent. The luminescence was measured in an Orion II microplate luminometer (Berthold, Germany) as relative light units (RLU). The luminescence recorded is proportional to the amount of ATP present in each well.
Apparent Ki for each compound were calculated from GSK3β Km value for ATP, applying the Cheng-Prusoff equation^10,11 in its simplified form: Ki = IC50/(1+([S]/Km)), in which S refers to the ATP concentration and Km is the Michaelis constant of the substrate for GSK3β.

For data set [5], the system named is SH-SY5Y cells. Briefly: Neuroprotection against okadaic acid (tau hyperphosphorylation), MTT. As to conditions: 1 μM, 24 h pre-incubation, 18 h co-incubation with OA 20 nM. The data set is classed as cell-based.
In data set [6] the target is T2, Nrf2-Keap1 protein-protein interaction (Homo sapiens, UniProt Q14145).
T2 construct: a solution of the Keap1 Kelch domain (200 nM)
Briefly: Fluorescence polarization assay of Nrf2-Keap1 interaction. The data set is classed as binding. The conditions noted are these: ligand concentration 10 µM; read-out: FP % Inhibition (± SEM). A general note: In fluorescence polarisation assays a small probe gives low polarisation when free and higher when bound to something large.
Description: Data are presented the means ± SEM of two experiments performed in triplicate.
The FP assay was carried out as previously described.^16,17 Inhibitors (10 µM) were plated onto untreated Corning® black 96 well plates containing a solution of the Keap1 Kelch domain (200 nM) and the fluorescent peptide FITC-β-DEETGEF-OH (1 nM) in Dulbecco’s Phosphate Buffered Saline (DPBS) at pH 7.4 (11% final DMSO concentration, 100 µL final volume). Following a 30 min incubation under slow agitation and away from light at room temperature, the plates were transferred to a PHERAstar microplate reader (BMG Labtech, Ortenberg, Germany) and the fluorescence polarisation was recorded. All measurements were recorded in triplicate.

The target in data set [7] is T3, Keap1 Kelch domain (Homo sapiens, UniProt Q14145).
T3 construct: A solution of the Keap1 Kelch domain protein (5 µM)
The data set can be described thus: Differential scanning fluorimetry assay. The data set is classed as binding. As to conditions: ligand concentration 10 µM.
Description: A solution of the Keap1 Kelch domain protein (5 µM) and detection dye SYPRO® orange (5X) in DPBS at pH 7.4 was added onto a qPCR plate containing the compound inhibitor (10 µM, 10% final DMSO concentration, 40 µL final volume). The plate was sealed using an optical foil seal and covered with aluminum foil to protect the dye from light. The plate was then transferred to a plate centrifuge and spun down briefly (200 G, 1 min, room temperature) to remove any bubbles and collect the solution at the bottom of the wells. Following a 30 min incubation at room temperature, the plate was placed into a 7500 Real time PCR machine and the fluorescence intensity at an excitation of 465 nm and emission of 580 nm was recorded during a temperature scan from 25 °C to 95 °C with a temperature ramping rate of 1 °C/min. All measurements were run in triplicate. Life Technologies software was used to set up the run on 7500 Software v.2.0.0 and the initial data processing was carried out on Protein thermal shift solution software. The raw data were exported to MS Excel and analysis was performed using a custom script provided by the Structural Genomics Consortium Oxford.^18 The temperature range over which the protein unfolding occurred was selected and the maximum and minimum (at temperatures below the maximum intensity) fluorescence intensities within this range were determined. The processed data were fitted to the Boltzmann equation by non-linear regression using the Origin Pro software.

In data set [8] the test system is HepG2 cells. Briefly: Hepatotoxicity in HepG2 cell line (MTT). The conditions noted are these: 24 h.
Description: (§4) Thus, it is relevant to study the potential neurotoxicity and hepatotoxicity of the novel dual GSK3β inhibitors-Nrf2 inducers 5a–t.
(§5) Viability was measured as MTT reduction in presence of increasing concentrations of derivatives. Values are expressed as LD50 calculated from dose-response curves of four different concentrations.
(§6) HepG2 cells were cultured according to supplier indications in EMEM supplemented with 10 % heat-inactivated FBS, 100 µg/mL streptomycin and 100 units/mL penicillin. Cells were maintained at 37 °C in humidified atmosphere of 95 % air and 5 % CO2. For experimental procedures, cells were cultured in 96-well plates at density of 1x10^5 cells/well. Treatments were performed in 1% FBS medium unless other concentration was specified. Cells were used from 4 up to 13 passages.
(§7) Cells were cultured in 48-well (SH-SY5Y, 1x10^5 cells per well) or 96-well plates (HepG2, 1x10^5 cells per well) for 24 h. […] Control cells were incubated with the same concentration of DMSO (0.1 % final concentration) without any drug.
Data set [9] relates to SH-SY5Y cells. The data set can be described thus: Cytotoxicity in SH-SY5Y neuroblastoma cell line (MTT). As to conditions: 24 h.
Description: as §5, §7
The subject of data set [10] is SH-SY5Y cells. The conditions noted are these: human, 24 h.
Description: as §5, §7
The subject of data set [11] is HepG2 cells. As to conditions: human, 24 h.
Description: as §4, §5, §6, §7
In data set [12] the target is T1, GSK3β. The conditions noted are these: cited from earlier work.

T1 sequence (P49841 whole entry): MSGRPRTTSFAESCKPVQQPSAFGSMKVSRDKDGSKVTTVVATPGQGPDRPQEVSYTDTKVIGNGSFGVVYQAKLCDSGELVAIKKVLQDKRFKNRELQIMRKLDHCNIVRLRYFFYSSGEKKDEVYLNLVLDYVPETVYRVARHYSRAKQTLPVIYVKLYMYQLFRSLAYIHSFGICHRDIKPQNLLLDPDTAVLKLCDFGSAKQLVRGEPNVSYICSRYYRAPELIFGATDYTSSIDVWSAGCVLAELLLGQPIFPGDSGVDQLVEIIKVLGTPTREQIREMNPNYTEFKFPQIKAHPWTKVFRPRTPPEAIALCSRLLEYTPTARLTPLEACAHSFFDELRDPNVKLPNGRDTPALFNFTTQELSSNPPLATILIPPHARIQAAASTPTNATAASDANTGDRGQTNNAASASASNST
T2 sequence (Q14145 321-609 limits assumed): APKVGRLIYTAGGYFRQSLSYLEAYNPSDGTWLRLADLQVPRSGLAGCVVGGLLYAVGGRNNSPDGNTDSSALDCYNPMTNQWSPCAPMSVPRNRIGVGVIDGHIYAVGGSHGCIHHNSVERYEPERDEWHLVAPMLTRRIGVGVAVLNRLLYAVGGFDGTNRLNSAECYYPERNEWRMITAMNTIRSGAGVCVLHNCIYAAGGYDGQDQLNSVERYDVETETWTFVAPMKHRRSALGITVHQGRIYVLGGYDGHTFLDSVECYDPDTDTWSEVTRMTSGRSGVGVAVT
T3 sequence (Q14145 321-609 limits assumed): as above

One may read the IC50 as the concentration at which inhibition is half-maximal. For `C[S+]([O-])CCCCN=C=S` (stereo not shown) [Sulforaphane], the EC50 in [1] is 0.54 ± 0.07 µM. Moreover, the IC50 was 1.4 ± 0.3 µM in data set [2] and 2.84 ± 0.55 µM in [3].
For orientation: inhibition means the change of the read-out against control, counted positive when it falls. Usually ΔTm stands for the change in melting temperature against a reference sample. For the molecule `Cc1[nH]nc2c1C(c1ccncc1)C(C#N)=C(N)O2` (stereo not shown) [Compound 5t, 6-Amino-3-methyl-4-(pyridin-4-yl)-2,4-dihydropyrano[2,3-c]pyrazole-5-carbonitrile], the Ki in data set [4] is 5.8 µM. In addition, the concentration for half-maximal inhibition (IC50) in data set [4] amounted to 8.28 ± 0.7 µM; in [2], 28.8 ± 3.61 µM; in [3], 37.8 ± 1.17 µM. Besides, the “Percentage of protection against okadaic acid toxicity” value in data set [5] is “over 50%”. Also, the inhibition at 10 µM in data set [6] was found to be 1.24 ± 3.22%. Moreover, the ΔTm at 10 µM in data set [7] was -0.53 ± 0.28 °C. For the same molecule, in data set [8], the “HepG2 LD50” value is listed as greater than 100 µM. Further, the “SH-SY5Y LD50” value in [9] is greater than 100 µM.
Take `COc1ccc2[nH]cc(CCNC(C)=O)c2c1` [Melatonin]: in [10], the “SH-SY5Y LD50” value was greater than 100 µM. The “HepG2 LD50” value in data set [11] is listed as greater than 100 µM.
Take `N#Cc1c(N)nc2[nH]nc(N)c2c1-c1ccccc1` [Compound 2]: the IC50 in [12] is 1.5 µM.
Regarding `Cc1[nH]nc2c1C(c1ccccc1)C(C#N)=C(N)N2` (stereo not shown) [Compound 7, 6-amino-3-methyl-4-phenyl-4,7-dihydro-2H-pyrazolo[3,4-b]pyridine-5-carbonitrile], in [4], the Ki was 13.1 µM and half-maximal inhibition (IC50) required 18.6 ± 0.4 µM. Further, in data set [1], the “Nrf2 induction (luciferase activity), result in words” value was “completely unable to induce Nrf2”.
Regarding `Cn1cc(C2=C(c3ccc(Cl)cc3Cl)C(=O)NC2=O)c2ccccc21` [SB216763, reference compound], in [1], the “Nrf2 induction (luciferase activity), result in words” value was “inability of the GSK3β inhibitor SB216763 to induce Nrf2 transcriptional activity” and the EC50 was greater than 30 µM. Besides, the “SH-SY5Y LD50” value in data set [10] is greater than 100 µM. The “HepG2 LD50” value in data set [11] was greater than 100 µM.

These data come from paper PMC5374710, “Discovery of the first dual GSK3β inhibitor/Nrf2 inducer. A new multitarget therapeutic strategy for Alzheimer’s disease” (Scientific Reports, 2017).
